This is an account of results in US20140243332A1, “METHODS OF TREATING CANCERS CHARACTERIZED BY ABERRENT ROS1 ACTIVITY” (Oregon Health & Science University, priority 2013, published 2014).

For assay [1], the system named is SLC-ROS and ERK1/2 phosphorylation. Briefly: Immunoblot of HCC78 lysates. The class given is cell-based, human. Particulars: HCC78 cells, immunoblot FIG. 1E. How it is done: FIG. 1E is an image of an immunoblot of lysates of HCC78 cells probing for phosphorylated and total SLC-ROS1 and ERK1/2, and phosphorylated protein S6 after treatment with the indicated concentration of the indicated inhibitor. The images are representative of two independent experiments.
(§1) Ba/F3 FIG-ROS, Ba/F3 SLC-ROS, HCC78 and mCC cell lines were treated with the indicated concentration of inhibitors for 1-2 hours. […] The protein content of the cell lysates was determined and lysates were either used for immunoprecipitation where indicated or extracted with SDS Sample buffer for 15 minutes at 80° C. Proteins were transferred to Immobilon-FL membranes and immunoblotted with antibodies specific for phospho-ROS1 (Cell Signaling Technology (CST) #3078), total ROS1 (CST #3266), phopsho-Shp2 (CST #3751), total Shpt (CST #3752), phospho-Stat3 (CST #9145), total Stat3 (CST #4904), phospho-Erk1/2 (CST #9101), total Erk2 (Santa Cruz #SC-1647), phospho-S6 (CST #4858), total S6 (CST #2216), phospho-Src (CST #2105), total Src (CST #2110), α-tubulin (Sigma T6199), or β-actin (Sigma A1978) as indicated. Images of the blots were generated by the LI-COR Odyssey® imaging system, following the manufacturer's protocol for immunoblot detection with use of IR-dye conjugated secondary antibodies.
(In western blotting, separated proteins are transferred to a membrane and probed.)

In assay [2] the target is T1, FIG-ROS (Homo sapiens, UniProt P08922). Briefly: Immunoblot of NIH3T3 FIG-ROS lysates. The following applies: NIH3T3 FIG-ROS cells, 1 hour, at lower doses than crizotinib. It is filed as cell-based. Set-up: expressed in transfected cells; host or cells: Ba/F3 (A14) and NIH3T3 (A24), retroviral pMSCV-IRES-GFP; the other entry of the earlier key: GOPC (Q9HD26, Golgi-associated PDZ and coiled-coil motif-containing protein). How it is done:
(§2) The parental Ba/F3 cell line was cultured in RPMI 1640 medium with 10% FBS, L-glutamine, penicillin/streptomycin and 15% WEHI-conditioned media. Ba/F3 cell lines were maintained at densities of 0.5×10^6 to 1.5×10^6 per ml of media. FIG-ROS and SLC-ROS Ba/F3 lines were created by infecting the parental Ba/F3 with retrovirus expressing either human FIG-ROS-S (indicated FIG-ROS herein) or SLC-ROS-S (indicated SLC-ROS herein). Stable transfectant lines were sorted for GFP expression on a FACS Aria® flow cytometer. Cells were counted daily using Guava ViaCount® reagent and Guava Personal Cell Analysis® flow cytometer. […] Early passage NIH3T3 cells were infected with retrovirus expressing either FIG-ROS or SLC-ROS and sorted for GFP expression as described above for Ba/F3 cells. HCC78 cells were cultured in RPMI 1640 medium with 10% FBS, L-glutamine, and penicillin/streptomycin. This media is referred to as RPMI-10% FBS herein.

In another assay the test system is Ba/F3 parental cells. The assay can be described thus: Cell viability (MTS) assay, Ba/F3 parental. The following applies: Mus musculus, BaF3, read-out: IC50 (insensitive/resistant up to stated concentration). The class given is cell-based. How it is done: as §2
[…]. The Ba/F3 parental line was also tested. (O'Dwyer M E and Druker B J, Lancet Oncology 1, 207-211 (2000); Walters D K et al, Cancer Cell 10, 65-75 (2006); and Heukamp L C et al, Science Translational Medicine 4, 141ra191 (2012); […].

Assay [3] addresses Ba/F3 FIG-ROS C2060G cells (Homo sapiens, UniProt P08922, C2060G, cells depend on it). The assay can be described thus: Cell viability assay, Ba/F3 FIG-ROS C2060G. The following applies: Table 3, Ba/F3 FIG-ROS C2060G; nM; read-out: IC50 (the source's name). The class given is cell-based. As to the method:
Cell lines were distributed in 96-well plates and incubated with the indicated concentrations of inhibitor for 72 hours. […] Ba/F3 cell lines were plated at 4×10^3 cells/well. HCC78 and mCC cell lines were plated at 1.5×10^3 cells/well. All cell types were seeded in a final volume of 80 microliters. A 20 microliter volume of five-fold concentrated inhibitor media was added. Cell proliferation was measured using a […] viability assay (CellTiter96 Aqueous One® Solution; Promega). A BioTek Synergy 2® plate reader was used to read the absorbance at 490 nm at 30 minutes and 1 hour after addition of MTS. To facilitate comparison between experiments, the raw MTS absorbance of vehicle (0.1% DMSO) treated cells was set to 1 and absorbance from inhibitor treated wells was normalized to the vehicle treated value. […] Data were normalized using Microsoft Excel® and further non-linear regression curve fit analysis of the normalized data for determination of IC50 was performed using Graphpad Prism® software.
The FIG-ROS-S fusion gene was synthesized using the GeneArt® service. FIG-ROS-S is denoted as FIG-ROS herein.

The target of another assay is T2, Ba/F3 FIG-ROS cells (Homo sapiens, UniProt P08922).
T2 construct: fused on or other part: GFP is co-expressed from an IRES in pMIG and is not fused; Q9HD26 (Golgi-associated PDZ and coiled-coil motif-containing protein)
Briefly: Apoptosis induction (Annexin V / 7-AAD), Ba/F3 FIG-ROS. The class given is cell-based. Particulars: 15 nM, 48 hours. As to the method: FIG. 5A is a set of three bar graphs depicting the induction of apoptosis in Ba/F3 FIG-ROS, Ba/F3 SLC-ROS and Ba/F3 ALK F1174L cells after 48 hours of treatment with the indicated doses of the indicated compounds. The number of cells that were Annexin V and 7-AAD positive after inhibitor treatment was normalized to number of cells staining positive with these markers with vehicle treatment (basal). A minimum of 2000 cells were counted per condition. Rate of apoptosis is shown as fold over basal. Basal apoptosis in Ba/F3 FIG-ROS, Ba/F3 SLC-ROS and Ba/F3 ALK F1174 cells was 3.6%, 2.8% and 1.2% respectively.

Assay [4] deals with T1, FIG-ROS. The assay can be described thus: Immunoblot of Ba/F3 FIG-ROS lysates. It is filed as cell-based. More on the design: expressed in transfected cells; host or cells: Ba/F3 (A14), retroviral pMSCV-IRES-GFP; the other entry of the earlier key: GOPC (Q9HD26, Golgi-associated PDZ and coiled-coil motif-containing protein). The following applies: Ba/F3 FIG-ROS cells, increasing amounts, immunoblot FIG. 1C. As to the method:
FIG. 1C is an image of an immunoblot of lysates of Ba/F3 FIG-ROS and Ba/F3 SLC-ROS and the indicated downstream effectors after treatment with the indicated compounds. Images shown are representative of three independent experiments.
as §1

For the compound `COc1cc2c(Oc3ccc(NC(=O)C4(C(=O)Nc5ccc(F)cc5)CC4)cc3F)ccnc2cc1OCCCN1CCOCC1` [foretinib, N1′-[3-fluoro-4-[[6-methoxy-7-(3-morpholinopropoxy)-4-quinolyl]oxy]phenyl]-N1-(4-fluorophenyl)cyclopropane-1,1-dicarboxamide], the “inhibition of SLC-ROS and ERK1/2 phosphorylation” value in assay [1] is listed as “at a lower concentration than did crizotinib”. Also, the FIG-ROS phosphorylation entry on FIG-ROS [2] is “strongly suppressed”. In addition, in the assay on Ba/F3 parental cells, the IC50 is over 2000 nM. The GI50 in assay [3] turned out to be 13.6 nM. Further, the apoptosis induction entry at Ba/F3 FIG-ROS cells is “induced apoptosis”. In addition, the “autophosphorylation of FIG-ROS and ROS1-driven signaling (phospho-Shp2, phospho-ERK1/2)” value on FIG-ROS [4] is recorded as “dose dependent decrease”.
